Laboratory results published in patent US4064351A, “9-OXO-15 .xi.-HYDROXY-20-ALKYLIDENEPROST-13(TRANS)-ENOIC ACID DERIVATIVES” (Sankyo Company Limited, priority 1974, dated 1977).

Columns and labels:
[1] = test system: gastric secretion (stomach of a male rat); assay: Inhibition of gastric secretion (tetragastrin-stimulated, perfused stomach of anesthetized rat; dose raising perfusate pH by 1.0); format: in vivo, Donryu strain); details: intravenous administration for 30 minutes; urethane-anesthetized rat; tetragastrine 10 μg/kg/hr
Method: The method employed was essentially same as described by M. N. Ghosh and H. O. Schild in British Journal of Pharmacology and Chemotherapy, vol. 13, 54-61 (1958). Through the stomach of a male rat (Donryu strain) anesthetized by administration of urethane was perfused a physiological saline solution containing a small amount of sodium hydroxide at a rate of 1 ml/min. Then 10 μg/kg/hr of a gastric secretion stimulating agent, tetragastrine, was continuously injected into the vein of said rat until pH of the outflowing perfusate reached approximately 3 and said value remained. Thereupon, a certain amount of the test compounds was administered at a certain rate into the vein for 30 minutes, and pH of the outflowing perfusate was measured. The measurement was repeated with variation of the administering amount.

[2] = test system: air-way resistance in guinea pigs; assay: Bronchodilating activity: inhibition of histamine-induced increase in air-way resistance (variant Konzett-Rossler method); format: in vivo, guinea pig; details: Cavia porcellus; intravenous (method; head prints i.r.); histamine 2 - 3 μg/kg i.v.; parentheses = 95% confidence limit; read-out: 50% Inhibition Dose (ID50) of increase of air-way resistance in guinea pigs
Method: The test compounds were administered through intravenous injection to a guinea pig (body weight: 400 - 600 g) anesthetized by administration of sodium pentobarbital, and 2 - 3 μg/kg of histamine was administered through intravenous injection. Inhibitory ratio of increase in air-way resistance was determined by the variant method of Konzett-Rossler method [Archiv fur Experimentelle Pathologie und Pharmakologie, vol. 195, 71 (1940)].

[3] = test system: bronchodilating activity in presence of a β-adrenergic blocking agent; assay: Inhibition of the bronchodilating activity by a β-adrenergic blocking agent

Row | SMILES | Dose needed to increase the pH of the outflowing perfusate by 1.0 [1] [mg/kg/hr] | ED50 [2] [µg/kg] | inhibition of bronchodilating activity by a β-adrenergic blocking agent (in words) [3]
1 | CC(C)=CCCC(C)C[C@H](O)/C=C/[C@H]1[C@H](O)CC(=O)[C@@H]1C/C=C\CCCC(=O)O (relative stereo) [Compound B, 9-oxo-11α, 15α-dihydroxy-17β-methyl-20-isopropylideneprost-5-(cis), 13(trans)-dienoic acid] | 0.070 |  | 
2 | CCCCC[C@H](O)/C=C/[C@H]1[C@H](O)CC(=O)[C@@H]1CCCCCCC(=O)O [PGE1, prostaglandin E1] | 0.086 | 0.14 | 
3 | CC(C)NCC(O)c1ccc(O)c(O)c1 (stereo not shown) [Isoproterenol] |  |  | inhibits
4 | CC(C)(C)NCC(O)c1ccc(O)c(CO)c1 (stereo not shown) [Salbutanol] |  |  | inhibits
5 | CC(C)=CCCC(C)CC(O)/C=C/C1C(O)CC(=O)C1CCCCCCC(=O)O (stereo not drawn) [Compound A, 9-oxo-11α,15α-dihydroxy-17β-methyl-20-isopropylideneprost-13(trans)-enoic acid] | 0.074 |  | 
6 | CCCCC[C@H](O)/C=C/[C@H]1[C@H](O)CC(=O)[C@@H]1C/C=C\CCCC(=O)O [PGE2] |  | 0.21 | 
